According to US20080318792A1, “Extension of pollination period” (priority 2007, published 2008):
Structures can show the parent of a compound that is named as a salt.

Test system: Hughes 1883 hybrid corn seed
Test: Soil germination/emergence of corn seed treated with different forms of ABA in slurry
Format: in vivo
Details: 25 g/cwt as free acid
Method: Three forms of ABA were evaluated in this experiment 1) free acid, 2) ammonium salt, and 3) sodium salt. The cation is referred to as the “counter-ion” below. […] The treatments were made up in 3 ml samples of experimental aqueous seed treatment slurry. All of the seed treatment slurry samples contained CF-Clear film-forming agent and Colorcoat Red (Becker Underwood), each at 1 oz/cwt, and 0.167 oz/cwt Maxim XL fungicide (Syngenta). The slurry application volume was 20 oz/cwt (cwt=100 lbs of seed).
One hundred gram samples of Hughes 1883 hybrid corn seed were treated with the experimental slurries using a Hege 11 seed treater with a six-inch bowl.
The seed was planted in plastic boxes containing 1 kg of typical agricultural silt loam. Fifty seeds were planted 3 cm deep in each plastic box, and the soil in the box was adjusted to 21% soil moisture (wet-weight basis). Two replications of the experiment were incubated under constant light in a 25° C. chamber and two replications incubated under constant light in an 18° C. chamber. The boxes were watered up to the correct weight daily, and checked for emergence. Daily counts of seedlings were continued until emergence ceased. The final count of emerged seedlings was expressed as a percentage of the 50 seeds planted (GERM).
The daily counts were converted to proportions of the final germination of the box, and a Gompertz curve was fitted to the data from each box using SAS Proc NLIN. From the parameters of the model, median germination time (T50) and quartile range (QR) were estimated for each box. Analysis of variance was performed and means calculated for each of the three responses (GERM, T50, QR).

SMILES	Final emergence (soil 18° C.) [%]	QR (soil 18° C.) [days]	T50 (soil 18° C.) [days]	Final emergence (soil 25° C.) [%]	QR (soil 25° C.) [days]	T50 (soil 25° C.) [days]
CC1=CC(=O)CC(C)(C)[C@@]1(O)/C=C/C(C)=C\C(=O)O [ABA ammonium salt]	91	3.52	11.2	91	1.34	7.4
CC1=CC(=O)CC(C)(C)[C@@]1(O)/C=C/C(C)=C\C(=O)[O-].[Na+] [ABA sodium salt]	92	3.36	10.9	92	1.31	7.1
